The results in this text go back to ChEMBL document CHEMBL6083188, “Recent contributions of pyridazine as a privileged scaffold of anticancer agents in medicinal chemistry: An updated review” (Bioorg Med Chem, 2024).

In brackets after ≈: the same amount, converted by molar mass.

Assay [1] deals with Phosphatidylinositol 4,5-bisphosphate 3-kinase catalytic subunit beta isoform (Homo sapiens, UniProt P42338). The assay is described as follows: Inhibition of PI3Kbeta (unknown origin).
Assay [2] concerns the target Phosphatidylinositol 4,5-bisphosphate 3-kinase catalytic subunit gamma isoform (Homo sapiens, UniProt P48736). The assay is described as follows: Inhibition of PI3Kgamma (unknown origin).
For the next assay, the system named is SNB-75. The assay can be described thus: Antiproliferative activity against human SNB-75 cells assessed as reduction in cell growth incubated for 48 hrs by SRB assay. The note with it: SNB-75, 48 h. Format: functional, cell-based. For orientation: The SRB assay estimates cell density from bound dye.
Assay [3] has as its target Phosphatidylinositol 4,5-bisphosphate 3-kinase catalytic subunit alpha isoform (Homo sapiens, UniProt P42336). The assay is described as follows: Inhibition of PI3Kalpha (unknown origin).
Assay [4] concerns the target T1, Phosphatidylinositol 4,5-bisphosphate 3-kinase catalytic subunit delta isoform (Homo sapiens, UniProt O00329).
T1 sequence (O00329 whole entry): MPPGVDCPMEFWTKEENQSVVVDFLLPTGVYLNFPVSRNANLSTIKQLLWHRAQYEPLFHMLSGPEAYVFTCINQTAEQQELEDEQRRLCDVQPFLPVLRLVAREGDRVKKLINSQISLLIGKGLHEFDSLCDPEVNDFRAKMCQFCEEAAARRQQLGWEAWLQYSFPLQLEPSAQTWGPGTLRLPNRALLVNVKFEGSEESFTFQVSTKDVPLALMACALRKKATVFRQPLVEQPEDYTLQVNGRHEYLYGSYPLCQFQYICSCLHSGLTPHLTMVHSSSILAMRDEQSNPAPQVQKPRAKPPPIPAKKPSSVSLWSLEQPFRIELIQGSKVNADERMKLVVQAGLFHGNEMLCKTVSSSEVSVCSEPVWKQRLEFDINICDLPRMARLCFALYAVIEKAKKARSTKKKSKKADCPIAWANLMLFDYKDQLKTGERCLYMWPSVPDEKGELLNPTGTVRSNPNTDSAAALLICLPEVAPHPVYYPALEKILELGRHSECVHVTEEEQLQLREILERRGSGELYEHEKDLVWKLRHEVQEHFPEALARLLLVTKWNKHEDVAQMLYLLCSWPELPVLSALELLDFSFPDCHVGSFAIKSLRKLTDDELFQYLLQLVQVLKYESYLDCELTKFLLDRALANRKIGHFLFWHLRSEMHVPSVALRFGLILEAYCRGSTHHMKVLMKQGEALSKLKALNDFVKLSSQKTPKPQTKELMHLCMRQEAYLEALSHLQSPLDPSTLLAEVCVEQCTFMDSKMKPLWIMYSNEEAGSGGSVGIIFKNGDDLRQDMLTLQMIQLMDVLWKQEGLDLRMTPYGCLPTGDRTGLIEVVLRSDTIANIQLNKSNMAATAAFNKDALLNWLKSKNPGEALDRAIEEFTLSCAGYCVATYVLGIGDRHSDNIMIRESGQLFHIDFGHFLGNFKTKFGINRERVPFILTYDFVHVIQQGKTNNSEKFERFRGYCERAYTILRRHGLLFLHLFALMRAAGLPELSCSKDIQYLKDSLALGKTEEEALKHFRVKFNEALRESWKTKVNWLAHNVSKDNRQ
The assay is described as follows: Inhibition of PI3Kdelta (unknown origin).

The test system of a further assay is MGC-803. The assay can be described thus: Antitumor activity against human MGC-803 cells xenografted in nude mouse assessed as tumor inhibition at 20 mg/kg, ip administered once every two days for 21 days relative to control. Format: functional. More on the design: scale not given: the % may be the effect or the level left. The note with it: time 21 day. (In general: Xenograft models place foreign cells or tissue in a host animal.)

The subject of assay [5] is PC-3. The assay is described as follows: cells. The note with it: Homo sapiens, PC-3, 72 h.
Description: Cytotoxicity against human PC-3 cells assessed as inhibition of cell growth incubated for 72 hrs by MTT assay
The next assay has as its system MDA-MB-231. The assay can be described thus: cells. Particulars: Homo sapiens.
The test system of another assay is T47D. The assay can be described thus: cells. Particulars: Homo sapiens.
A further assay has as its system HepG2. The assay can be described thus: Cytotoxicity against human HepG2 cells assessed as reduction in cell viability measured for 48 hrs by MTT assay. Format: functional, cell-based. The note with it: HepG2, 48 h.
Assay [6] deals with PC-3. The assay is described as follows: Cytotoxicity against human PC-3 cells assessed as reduction in cell viability measured for 48 hrs by MTT assay. Format: functional, cell-based. The note with it: PC-3, 48 h.
Assay [7] deals with MCF7. The assay can be described thus: Cytotoxicity against human MCF7 cells assessed as reduction in cell viability measured for 48 hrs by MTT assay. The note with it: MCF7, 48 h. Format: functional, cell-based. (Tetrazolium assays rely on reduction of a dye to a coloured formazan, in cell work by metabolically active cells.)
Assay [8] concerns HCT-116. The assay can be described thus: Cytotoxicity against human HCT-116 cells assessed as reduction in cell viability measured for 48 hrs by MTT assay. Format: functional, cell-based. Particulars: HCT-116, 48 h.
In a further assay the test system is A549. The assay is described as follows: Cytotoxicity against human A549 cells assessed as reduction in cell growth incubated for 5 days by MTT assay. Format: functional, cell-based. The note with it: A549, 120 h.
The target of assay [9] is Hepatocyte growth factor receptor (Homo sapiens, UniProt P08581). The assay can be described thus: Inhibition of c-Met (unknown origin).
In the next assay the test system is HeLa. The assay can be described thus: Cytotoxicity against human HeLa cells assessed as reduction in cell growth incubated for 5 days by MTT assay. Format: functional, cell-based. The note with it: 120 h.
In assay [10] the test system is MCF7. The assay is described as follows: Cytotoxicity against human MCF7 cells assessed as reduction in cell growth incubated for 5 days by MTT assay. Format: functional, cell-based. The note with it: MCF7, 120 h.
The next assay has as its target Aurora kinase B (Homo sapiens, UniProt Q96GD4). The assay can be described thus: Inhibition of Aurora B (unknown origin).
In assay [11] the test system is HCT-116. The assay can be described thus: Cytotoxicity against human HCT-116 cells assessed as reduction in cell viability incubated for 72 hrs by MTT assay. Format: functional, cell-based. Particulars: HCT-116, 72 h.
Assay [12] has as its target Epidermal growth factor receptor (Homo sapiens, UniProt P00533). The assay is described as follows: Inhibition of EGFR (unknown origin) extracted from insect cells by ELISA method. Format: cell-free, Insect cell.
A short description of assay [13]: Antiproliferative activity against mouse Ba/F3 EML4-ALK cells assessed as inhibition of cell growth. Format: functional, cell-based.
Assay [14] can be described thus: Antiproliferative activity against mouse Ba/F3 EML4-ALK-G1202R-L1196M cells assessed as inhibition of cell growth. Format: functional, cell-based.

Sequence of Phosphatidylinositol 4,5-bisphosphate 3-kinase catalytic subunit gamma isoform (P48736 whole entry, canonical isoform): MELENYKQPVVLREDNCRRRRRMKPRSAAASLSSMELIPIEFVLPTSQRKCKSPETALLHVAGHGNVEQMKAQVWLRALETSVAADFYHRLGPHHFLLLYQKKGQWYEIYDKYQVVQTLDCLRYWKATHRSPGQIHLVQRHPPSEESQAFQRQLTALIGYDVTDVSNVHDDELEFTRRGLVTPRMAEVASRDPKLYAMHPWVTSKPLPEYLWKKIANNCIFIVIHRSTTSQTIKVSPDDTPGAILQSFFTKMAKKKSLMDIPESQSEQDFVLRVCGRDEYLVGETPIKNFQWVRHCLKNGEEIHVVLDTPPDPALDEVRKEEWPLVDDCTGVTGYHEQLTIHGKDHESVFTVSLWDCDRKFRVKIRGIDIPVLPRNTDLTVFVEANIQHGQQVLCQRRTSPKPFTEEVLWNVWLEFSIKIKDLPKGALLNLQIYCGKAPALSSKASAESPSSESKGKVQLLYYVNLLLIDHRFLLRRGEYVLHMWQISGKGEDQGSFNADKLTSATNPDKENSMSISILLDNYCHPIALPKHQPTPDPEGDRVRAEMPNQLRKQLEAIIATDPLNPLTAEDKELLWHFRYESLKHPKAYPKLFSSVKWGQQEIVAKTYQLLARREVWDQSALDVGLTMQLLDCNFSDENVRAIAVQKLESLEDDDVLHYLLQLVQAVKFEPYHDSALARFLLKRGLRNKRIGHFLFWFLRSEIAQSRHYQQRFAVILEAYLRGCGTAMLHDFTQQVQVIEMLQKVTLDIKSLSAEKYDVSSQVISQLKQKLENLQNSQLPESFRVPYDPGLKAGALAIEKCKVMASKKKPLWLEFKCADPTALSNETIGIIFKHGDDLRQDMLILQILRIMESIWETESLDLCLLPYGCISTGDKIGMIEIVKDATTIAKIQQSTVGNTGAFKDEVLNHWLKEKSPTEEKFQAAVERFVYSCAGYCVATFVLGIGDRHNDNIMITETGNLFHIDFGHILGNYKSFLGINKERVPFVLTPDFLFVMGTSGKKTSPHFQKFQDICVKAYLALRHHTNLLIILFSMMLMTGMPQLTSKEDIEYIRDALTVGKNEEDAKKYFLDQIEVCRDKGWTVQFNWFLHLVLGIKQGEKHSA
Sequence of Phosphatidylinositol 4,5-bisphosphate 3-kinase catalytic subunit beta isoform (P42338 whole entry, canonical isoform): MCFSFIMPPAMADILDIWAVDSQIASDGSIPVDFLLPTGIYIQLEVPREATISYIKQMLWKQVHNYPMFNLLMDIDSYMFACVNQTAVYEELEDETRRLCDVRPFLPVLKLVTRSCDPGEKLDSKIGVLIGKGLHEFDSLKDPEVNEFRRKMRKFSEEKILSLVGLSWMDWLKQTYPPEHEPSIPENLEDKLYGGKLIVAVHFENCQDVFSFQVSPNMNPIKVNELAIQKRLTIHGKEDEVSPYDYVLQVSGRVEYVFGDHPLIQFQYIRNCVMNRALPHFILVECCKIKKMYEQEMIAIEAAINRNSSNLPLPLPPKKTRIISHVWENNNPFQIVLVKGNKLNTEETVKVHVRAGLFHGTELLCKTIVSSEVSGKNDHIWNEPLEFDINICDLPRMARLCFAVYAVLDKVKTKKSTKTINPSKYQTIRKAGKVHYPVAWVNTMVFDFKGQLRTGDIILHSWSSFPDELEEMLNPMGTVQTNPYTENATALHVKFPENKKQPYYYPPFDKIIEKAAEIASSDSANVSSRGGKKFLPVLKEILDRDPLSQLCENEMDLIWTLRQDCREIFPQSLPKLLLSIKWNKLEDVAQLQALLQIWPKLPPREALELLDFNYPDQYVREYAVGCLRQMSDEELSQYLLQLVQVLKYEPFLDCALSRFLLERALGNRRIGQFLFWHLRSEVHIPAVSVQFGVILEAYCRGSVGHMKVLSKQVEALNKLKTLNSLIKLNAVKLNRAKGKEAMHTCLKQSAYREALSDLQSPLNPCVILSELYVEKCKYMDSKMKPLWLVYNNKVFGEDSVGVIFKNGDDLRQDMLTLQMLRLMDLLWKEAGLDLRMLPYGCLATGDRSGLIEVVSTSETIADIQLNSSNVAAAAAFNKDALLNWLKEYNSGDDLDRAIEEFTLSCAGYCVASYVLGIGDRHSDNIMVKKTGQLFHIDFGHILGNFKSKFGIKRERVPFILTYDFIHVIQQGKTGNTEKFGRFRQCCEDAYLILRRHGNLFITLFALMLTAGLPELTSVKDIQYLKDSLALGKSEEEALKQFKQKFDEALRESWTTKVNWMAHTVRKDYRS
Sequence of Hepatocyte growth factor receptor (P08581 whole entry): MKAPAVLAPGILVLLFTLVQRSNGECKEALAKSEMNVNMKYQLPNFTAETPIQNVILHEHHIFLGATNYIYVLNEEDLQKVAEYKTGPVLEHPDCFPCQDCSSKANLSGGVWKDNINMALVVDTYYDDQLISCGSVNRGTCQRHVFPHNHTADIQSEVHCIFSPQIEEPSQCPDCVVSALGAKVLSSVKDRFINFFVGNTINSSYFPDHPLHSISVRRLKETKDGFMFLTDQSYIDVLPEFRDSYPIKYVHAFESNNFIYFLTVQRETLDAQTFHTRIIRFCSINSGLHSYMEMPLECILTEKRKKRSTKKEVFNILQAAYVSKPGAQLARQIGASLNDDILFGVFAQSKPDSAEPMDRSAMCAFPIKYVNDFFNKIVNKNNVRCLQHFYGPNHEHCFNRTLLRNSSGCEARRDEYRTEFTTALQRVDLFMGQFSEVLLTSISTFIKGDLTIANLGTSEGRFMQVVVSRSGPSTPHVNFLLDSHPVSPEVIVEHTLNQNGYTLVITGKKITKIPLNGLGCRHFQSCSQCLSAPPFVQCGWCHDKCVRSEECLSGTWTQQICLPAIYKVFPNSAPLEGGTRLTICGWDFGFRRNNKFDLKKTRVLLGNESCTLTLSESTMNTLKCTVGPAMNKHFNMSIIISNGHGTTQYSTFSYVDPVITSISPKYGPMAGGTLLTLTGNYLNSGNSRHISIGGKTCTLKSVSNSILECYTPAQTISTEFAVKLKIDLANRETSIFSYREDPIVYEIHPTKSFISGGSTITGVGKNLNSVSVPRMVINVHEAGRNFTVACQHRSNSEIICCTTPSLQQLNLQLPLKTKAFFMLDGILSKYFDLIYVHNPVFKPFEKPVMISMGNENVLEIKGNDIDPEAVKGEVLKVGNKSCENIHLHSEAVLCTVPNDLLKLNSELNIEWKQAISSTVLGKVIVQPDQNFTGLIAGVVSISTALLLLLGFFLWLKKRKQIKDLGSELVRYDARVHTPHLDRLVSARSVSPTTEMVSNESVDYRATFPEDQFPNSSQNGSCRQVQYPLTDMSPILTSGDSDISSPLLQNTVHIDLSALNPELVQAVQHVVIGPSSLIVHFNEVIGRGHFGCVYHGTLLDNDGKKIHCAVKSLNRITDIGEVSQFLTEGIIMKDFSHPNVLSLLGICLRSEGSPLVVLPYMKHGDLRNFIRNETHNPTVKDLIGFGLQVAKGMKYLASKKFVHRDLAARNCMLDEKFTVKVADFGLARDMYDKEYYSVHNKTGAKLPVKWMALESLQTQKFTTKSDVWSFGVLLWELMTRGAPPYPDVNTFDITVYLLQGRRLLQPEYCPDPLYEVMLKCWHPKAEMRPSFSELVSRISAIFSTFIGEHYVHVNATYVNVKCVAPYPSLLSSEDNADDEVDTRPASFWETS
Sequence of Phosphatidylinositol 4,5-bisphosphate 3-kinase catalytic subunit alpha isoform (P42336 whole entry, canonical isoform): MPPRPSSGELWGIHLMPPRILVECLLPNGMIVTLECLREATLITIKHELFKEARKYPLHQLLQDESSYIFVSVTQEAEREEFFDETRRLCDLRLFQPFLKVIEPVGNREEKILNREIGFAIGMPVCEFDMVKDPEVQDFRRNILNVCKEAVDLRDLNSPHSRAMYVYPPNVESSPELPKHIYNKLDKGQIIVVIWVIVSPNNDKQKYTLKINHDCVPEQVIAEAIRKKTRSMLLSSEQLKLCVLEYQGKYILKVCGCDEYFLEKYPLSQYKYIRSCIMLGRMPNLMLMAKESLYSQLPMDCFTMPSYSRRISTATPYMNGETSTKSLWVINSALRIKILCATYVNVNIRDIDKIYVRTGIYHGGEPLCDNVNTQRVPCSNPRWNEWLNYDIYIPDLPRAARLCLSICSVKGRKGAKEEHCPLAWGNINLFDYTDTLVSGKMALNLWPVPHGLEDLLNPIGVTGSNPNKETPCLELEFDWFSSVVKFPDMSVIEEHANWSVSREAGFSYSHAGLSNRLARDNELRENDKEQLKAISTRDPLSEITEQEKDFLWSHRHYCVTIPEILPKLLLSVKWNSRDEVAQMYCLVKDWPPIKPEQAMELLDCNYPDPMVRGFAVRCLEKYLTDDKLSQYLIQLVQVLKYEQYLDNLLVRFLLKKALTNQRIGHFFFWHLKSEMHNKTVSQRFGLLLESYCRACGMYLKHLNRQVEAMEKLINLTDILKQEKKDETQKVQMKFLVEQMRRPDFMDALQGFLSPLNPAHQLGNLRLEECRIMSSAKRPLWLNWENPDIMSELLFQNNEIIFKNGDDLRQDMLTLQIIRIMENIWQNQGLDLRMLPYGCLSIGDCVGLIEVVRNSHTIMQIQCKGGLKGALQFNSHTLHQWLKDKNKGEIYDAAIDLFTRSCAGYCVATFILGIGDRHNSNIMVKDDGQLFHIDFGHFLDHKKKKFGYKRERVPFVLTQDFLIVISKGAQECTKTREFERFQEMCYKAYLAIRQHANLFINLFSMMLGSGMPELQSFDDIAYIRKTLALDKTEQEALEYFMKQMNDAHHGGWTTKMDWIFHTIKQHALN
Sequence of Aurora kinase B (Q96GD4 whole entry): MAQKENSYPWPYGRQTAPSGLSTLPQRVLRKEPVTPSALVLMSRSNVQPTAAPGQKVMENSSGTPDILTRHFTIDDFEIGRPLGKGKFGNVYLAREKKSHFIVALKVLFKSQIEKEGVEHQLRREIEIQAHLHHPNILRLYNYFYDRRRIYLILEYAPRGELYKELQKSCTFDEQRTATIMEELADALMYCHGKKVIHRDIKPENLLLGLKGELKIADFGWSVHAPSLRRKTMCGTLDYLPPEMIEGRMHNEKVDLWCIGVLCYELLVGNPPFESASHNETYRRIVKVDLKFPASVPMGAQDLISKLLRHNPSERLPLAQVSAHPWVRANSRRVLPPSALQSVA
Description for MDA-MB-231: Antiproliferative activity against human MDA-MB-231 cells assessed as reduction in cell viability
Description for T47D: Antiproliferative activity against human T47D cells assessed as reduction in cell viability

Broadly, the IC50 is the concentration that gives 50% inhibition. For `CCOC(=O)c1nn(-c2ccccc2)c(=O)c2c(N)c(C#N)c(-c3cccs3)cc12`, the IC50 in [1] stood at 13600 nM; in assay [2] it was 12500 nM; with SNB-75, 3.7 µg/mL (≈ 8.88 µM); in [3] it was 4390 nM; in assay [4], 3110 nM.

As to `CCN(CC)CCNc1cc(-c2ccc(Br)cc2)nn2c(=O)c3ccccc3nc12`, in the assay on MGC-803, the Activity is on record as 55.9%.

In the case of `O=C1CCC(c2ccc(NC(=S)Nc3ccccc3)cc2)=NN1c1ccccc1`, in the assay with PC-3 [5], the IC50 amounted to 7830 nM.

Regarding `O=C(NCC1CCOCC1)c1cc(C(F)(F)F)c(N2CCOCC2)nn1`, the IC50 was found to be 900 nM in the assay on MDA-MB-231 and 430 nM in the assay on T47D.

On to `Oc1ccc(/C=N/Nc2nn3c(C(F)(F)F)nnc3c3ccccc23)cc1`, for which the half-maximal inhibitory concentration (IC50) with HepG2 was 11200 nM; in the assay on PC-3 [6], 4250 nM; in the assay on MCF7 [7] it was 8040 nM; in the assay on HCT-116 [8] it was 5700 nM.

Turning to `Cc1cc(Oc2ccc(NC(=O)c3sc(-c4ccccn4)nc3C)cc2)c2nncn2n1`, the half-maximal inhibitory concentration (IC50) stood at 1060 nM in the assay on A549, 90 nM in [9], 2730 nM in the assay with HeLa and 1200 nM with MCF7 [10].

Take `c1cc2[nH]ncc2cc1-c1cnc2ccc(OC[C@H]3CNCCO3)nn12`: half-maximal inhibition against Aurora kinase B (IC50) was put at 6 nM.

`COC(=O)C(CC(C)(C)C)NC(=O)CNC(=O)COc1nn(-c2ccccc2)c(=O)c2ccccc12` (stereo not drawn): the half-inhibitory concentration (IC50) in the assay on HCT-116 [11] was determined as 1360 nM.

For `COc1cccc(C2=NN(c3ccc(-c4ccccc4)nn3)C(c3ccc(F)c(OC)c3)C2)c1` (stereo not drawn), the 50% inhibitory concentration (IC50) in assay [12] was 650 nM.

Regarding `C[C@H]1CNC(=O)c2cnn3ccc(nc23)N[C@H](C)c2cc(F)ccc2O1` [REPOTRECTINIB], the results for the half-maximal inhibitory concentration (IC50) in assay [13] and in [14] were 164 nM and 208 nM, respectively.

In the case of `CNC(=O)c1cc(Oc2ccc(NC(=O)Nc3ccc(Cl)c(C(F)(F)F)c3)cc2)ccn1` [SORAFENIB], the IC50 in the assay with PC-3 [5] was 11500 nM.
